What is called melting point is the temperature of the solid-liquid transition. One may read the pIC50 as the negative decadic logarithm of the IC50, by convention in mol/L.

The values that follow come from patent publication US20050197331A1, “Novel anti-inflammatory and analgesic heterocyclic amidines that inhibit nitrogen oxide (NO) production” (ROTTAPHARM SPA, priority 2004, published 2005).

pIC50: −log10 of the molar value. Where a name gives a salt, the structure may show the parent alone. Read-outs that look alike come from different tables or passages of the source.

Series [1] concerns formation of NO measured as NO2^− (nitrite). Kind of series: Inhibition of NO (nitrite) formation in rabbit articular chondrocytes stimulated with IL-1β. Format: cell-based. Conditions: for pIC50: Oryctolagus cuniculus, Chondrocyte. On the procedure:
(§1) a) The inhibitory activity on the formation of NO measured as NO2^− (nitrite) and PGE2 was studied in vitro on culture media of rabbit articular chondrocytes stimulated with the cytokine IL-1β (1 ng/ml) for 48 hours. For the preparation of the chondrocytes, the method described by Berenbaum et al. [FEBS Letters 340, 51-55 (1994)] was followed. Briefly, fragments of cartilage removed aseptically from the articular heads of rabbit shoulder, hip and knee were finely ground and digested at 37° C. in hyaluronidase, trypsin and collagenase solutions, giving, after filtration through sterile gauze and centrifugation at 600×g and suitable dilution with 10% DMEM-FCS 10%, a concentration per well of about 1×10^5 cells. The cells were maintained under these conditions until confluent (about 15 days), the medium being replaced every 3 days. At this point, the test products dissolved in the medium were added to each sample and, after 20 minutes, 350 μl of IL-1β were added, to give a final concentration of 1 ng/ml. The stimulation lasted 48 hours at 37° C. (incubation in air/7% CO2). A nitrite assay was subsequently performed on the cell supernatant, as described by Green et al. [Anal. Biochem. 126, 131-138 (1982)], and of PGE2 by RIA assay. The results obtained are shown in Table 3, in which is given, for a number of the compounds that are the subject of the invention and that are already illustrated in Table 1, the IC50, i.e. the concentration (micromolar) of antagonist capable of inhibiting the formation of nitrites and PGE2 by 50% relative to the control group, i.e. relative to the cells stimulated with IL-1β but without addition of antagonists.

The test system of series [2] is PGE2. Kind of series: Inhibition of PGE2 formation in rabbit articular chondrocytes stimulated with IL-1β (RIA). The series is classed as cell-based. The method, then: as §1
Where [3] appears, read: rabbit articular chondrocytes, IL-1β 1 ng/ml, 48 hours, nitrite in supernatant, read-out: Inhibition % IC50 NO.
Setting [4] is: Oryctolagus cuniculus, Chondrocyte, rabbit articular chondrocytes, IL-1β 1 ng/ml, 48 hours, RIA, read-out: Inhibition % IC50 PGE2.
[5] abbreviates: rabbit articular chondrocytes stimulated with IL-1β.
[6] abbreviates: Oryctolagus cuniculus, Chondrocyte, rabbit articular chondrocytes stimulated with IL-1β, read-out: IC50, formation of PGE2.
[7] abbreviates: rabbit articular chondrocytes, IL-1β 1 ng/ml, 48 hours, RIA.

The compound `CC(=N)Nc1ccc2[nH]c(-c3cccc(C(F)(F)F)c3)nc2c1` (as salt: hydrobromid) [Compound 36, N-[2-(3-trifluoromethylphenyl)benzimidazole-5-yl]acetamidine hydrobromide] registered a melting point of 284.3 to 285.4 °C.

Turning to `CC(=N)Nc1ccc2[nH]c(-c3ccccc3F)nc2c1` (as salt: hydrobromid) [Compound 38, N-[2-(2-fluorophenyl)benzimidazol-5-yl]acetamidine hydrobromide], the melting point was 266.8 to 269 °C.

The compound `COc1ccc(S(N)(=O)=O)cc1-c1nc2cc(NC(C)=N)ccc2s1` (as salt: hydrochloride) [Compound 13, N-[2-(5-aminosulfonyl-2-methoxyphenyl)benzothiazol-5-yl]acetamidine hydrochloride] came in with a melting point of 244 to 248 °C.

In turn, `CC(=N)Nc1ccc2[nH]c(-c3ccc(F)cc3)nc2c1` (as salt: hydrochloride) [Compound 19, N-[2-(4-fluorophenyl)benzimidazol-5-yl]acetamidine dihydrochloride] returned a melting point of 283.7 to 286.3 °C.

Compound `CC(=N)Nc1ccc2[nH]c(-c3ccccc3)nc2c1` (as salt: hydrochloride) [Compound 21, N-(2-phenyl-3H-benzimidazol-5-yl)acetamidine hydrochloride] gave a melting point of 164 to 166 °C.

With `CCCCCc1nc2ccc(NC(C)=N)cc2[nH]1` (as salt: hydrochloride) [Compound 22, N-(2-pentyl-3H-benzimidazol-5-yl)acetamidine dihydrochloride], the melting point fell in the range of 276.9 to 278.3 °C.

In turn, `CC(=N)Nc1ccc2[nH]c(-c3ccc[nH]3)nc2c1` (as salt: hydrochloride) [Compound 23, N-[2-(pyrrol-2-yl)-3H-benzimidazol-5-yl]acetamidine dihydrochloride] displayed a melting point of 318 to 322 °C.

`COC(=O)c1ccc(-c2nc3cc(NC(C)=N)ccc3[nH]2)cc1` (as salt: hydrochloride) [Compound 25, Methyl 4-(5-acetimidoylamino-1H-benzimidazol-2-yl)benzoate hydrochloride] came in with a melting point of 284 to 288 °C.

With `CC(=N)Nc1ccc2nc(-c3ccccc3)ncc2c1` (as salt: hydrochloride) [Compound 27, N-(2-phenylquinazolin-6-yl)acetamidine dihydrochloride], the melting point lay within 162 to 168 °C.

`COc1ccccc1-c1nc2cc(NC(C)=N)ccc2n1C` (as salt: hydrochloride) [Compound 43, N-[1-methyl-2-(2-methoxyphenyl)benzimidazol-5-yl]acetamidine dihydrochloride] came in with a melting point of 253.1 to 254.7 °C.

`CCCCCc1nc2ccc(NC(C)=N)cc2s1` [Compound 4, N-(2-pentylbenzothiazol-6-yl)acetamidine] gave a melting point of 112.6 to 114.7 °C. In series [1] (rabbit articular chondrocytes stimulated with IL-1β, read-out: IC50, production of NO), the pIC50 is 5.10 to 5.52. In addition, the pIC50 in series [1] (setting [3]) is 5.16. Also, the pIC50 in series [2] (setting [4]) was 5.18.

Take `CC(=N)Nc1ccc2sc(Cc3ccccc3)nc2c1` [Compound 11, N-[2-benzylbenzothiazol-5-yl]acetamidine]: the melting point was 117.9 to 120 °C. The pIC50 in series [1] (setting [3]) is 4.82. For the same compound, the pIC50 in series [2] (setting [4]) is 5.13.

For the compound `CC(=N)Nc1ccc2sc(/C=C/c3ccccc3)nc2c1` [Compound 12, N-[2-styrylbenzothiazol-5-yl]acetamidine], the melting point fell in the range of 90.8 to 91.8 °C. The negative logarithm of the IC50 (pIC50) in series [1] (setting [3]) was 4.05. For the same compound, the “inhibiting the production of NO (in words)” value in series [1] (setting [5]) is on record as “little activity”. Besides, in series [2] (setting [4]), the negative logarithm of the IC50 (pIC50) is 5.89. In series [2] (setting [5]), the “IC50, formation of PGE2” value is “sub-micromolar”.

For `COc1ccc(S(N)(=O)=O)cc1-c1nc2cc(NC(C)=N)ccc2s1` [Compound 13, N-[2-(5-aminosulfonyl-2-methoxyphenyl)benzothiazol-5-yl]acetamidine hydrochloride], in series [2] (setting [4]), the pIC50 was 4.79.

Take `CC(=N)Nc1ccc2sc(-c3ccccn3)nc2c1` [Compound 14, N-[2-(2-pyridyl)benzothiazol-5-yl]acetamidine]: the melting point lay within 187.2 to 188.9 °C. Besides, the negative-log IC50 (pIC50) in series [2] (setting [4]) was 4.37.

Turning to `CC(=N)Nc1ccc2[nH]c(-c3ccc(F)cc3)nc2c1` [Compound 19, N-[2-(4-fluorophenyl)benzimidazol-5-yl]acetamidine dihydrochloride], the figures for the pIC50 in series [1] (setting [3]), in series [2] (setting [6]) and in series [2] (setting [4]) were 4.11, 6.10 to 6.52 and 6.15, respectively. Moreover, the “inhibiting the production of NO (in words)” value in series [1] (setting [5]) is on record as “little activity”. Further, the “IC50, formation of PGE2” value in series [2] (setting [5]) is “sub-micromolar”.

Take `CC(=N)Nc1ccc2[nH]c(-c3ccc(Cl)cc3)nc2c1` [Compound 20, N-[2-(4-chlorophenyl)benzimidazol-5-yl]acetamidine]: the melting point was in the range of 153.6 to 156 °C. Moreover, the pIC50 in series [1] (setting [3]) was 4.64. Besides, the “inhibiting the production of NO (in words)” value in series [1] (setting [5]) is recorded as “little activity”. Besides, the pIC50 in series [2] (setting [6]) was 6.10 to 6.52. The pIC50 in series [2] (setting [4]) is 6.40. In series [2] (setting [5]), the “IC50, formation of PGE2” value is recorded as “sub-micromolar”.

Regarding `CC(=N)Nc1ccc2[nH]c(-c3ccccc3)nc2c1` [Compound 21, N-(2-phenyl-3H-benzimidazol-5-yl)acetamidine hydrochloride], the pIC50 in series [1] (setting [3]) is 4.07; in series [2] (setting [6]), 6.10 to 6.52; in series [2] (setting [4]), 6.10. Further, the “inhibiting the production of NO (in words)” value in series [1] (setting [5]) is reported as “little activity”. Moreover, the “IC50, formation of PGE2” value in series [2] (setting [5]) is on record as “sub-micromolar”.

As for `CCCCCc1nc2ccc(NC(C)=N)cc2[nH]1` [Compound 22, N-(2-pentyl-3H-benzimidazol-5-yl)acetamidine dihydrochloride], the negative logarithm of the IC50 (pIC50) in series [1] (setting [3]) was 3.91; in series [2] (setting [4]), 4.50.

Take `CC(=N)Nc1ccc2[nH]c(-c3ccc[nH]3)nc2c1` [Compound 23, N-[2-(pyrrol-2-yl)-3H-benzimidazol-5-yl]acetamidine dihydrochloride]: the figures for the pIC50 in series [1] (setting [3]) and in series [2] (setting [4]) were 3.60 and 5.70, respectively.

In turn, `Br.CC(=N)Nc1ccc2nc(-c3ccc[nH]3)[nH]c2c1` [Compound 24, N-[2-(pyrrol-2-yl)-3H-benzimidazol-5-yl]acetamidine hydrobromide] displayed a melting point of 197 to 199 °C.

On to `COC(=O)c1ccc(-c2nc3cc(NC(C)=N)ccc3[nH]2)cc1` [Compound 25, Methyl 4-(5-acetimidoylamino-1H-benzimidazol-2-yl)benzoate hydrochloride], for which the pIC50 in series [1] (setting [3]) was 3.76. Also, in series [2] (setting [7]), the “Inhibition % IC50 PGE2” value is “IN (IN = <25% inhibitory activity at 30 × 10^−6M)”.

Turning to `CC(=N)Nc1ccc2[nH]c(-c3ccc(C(=O)O)cc3)nc2c1` [Compound 26, 4-(5-acetimidoylamino-1H-benzimidazol-2-yl)benzoic acid], the melting point fell in the range of 271.5 to 274.3 °C. Also, the “Inhibition % IC50 PGE2” value in series [2] (setting [7]) is “IN (IN = <25% inhibitory activity at 30 × 10^−6M)”.

The compound `CC(=N)Nc1ccc2oc(-c3cccc(C(F)(F)F)c3)nc2c1` [Compound 31, N-[2-(3-trifluromethylphenyl)benzoxazol-5-yl]acetamidine] returned a melting point of 157.9 to 159.2 °C. Besides, the negative-log IC50 (pIC50) in series [1] (setting [3]) was 4.95. For the same compound, the negative logarithm of the IC50 (pIC50) in series [2] (setting [4]) is 5.54.

`CC(=N)Nc1ccc2[nH]c(-c3cccc(C(F)(F)F)c3)nc2c1` [Compound 36, N-[2-(3-trifluoromethylphenyl)benzimidazole-5-yl]acetamidine hydrobromide]: in series [2] (setting [7]), the “Inhibition % IC50 PGE2” value is “IN (IN = <25% inhibitory activity at 30 × 10^−6M)”.

As for `CC(=N)Nc1ccc2[nH]c(-c3ccccc3F)nc2c1` [Compound 38, N-[2-(2-fluorophenyl)benzimidazol-5-yl]acetamidine hydrobromide], the “Inhibition % IC50 PGE2” value in series [2] (setting [7]) is recorded as “IN (IN = <25% inhibitory activity at 30 × 10^−6M)”.

Regarding `CC(=N)Nc1ccc2sc(-c3ccc[nH]3)nc2c1` [Compound 40, N-[2-(pyrrol-2-yl)benzothiazol-5-yl]acetamidine], the melting point lay in the range of 166.7 to 169.1 °C. For the same compound, the negative-log IC50 (pIC50) in series [2] (setting [4]) was 5.08.

`COc1ccccc1-c1[nH]c2ccc(NC(C)=N)cc2[n+]1C` [Compound 44, N-[1-methyl-2-(2-methoxyphenyl)benzimidazol-6-yl]acetamidine]: the melting point is 205.6 to 207.1 °C.

“N-[2-phenylbenzothiazol-5-yl]cyclopropylcarboxamidine [Compound 41]”: in series [1] (rabbit articular chondrocytes, IL-1β 1 ng/ml, 48 hours, nitrite in supernatant), the “Inhibition % IC50 NO” value is listed as “IN (IN = <25% inhibitory activity at 30 × 10^−6M)”. Moreover, the negative logarithm of the IC50 (pIC50) in series [2] (rabbit articular chondrocytes, IL-1β 1 ng/ml, 48 hours, RIA, read-out: Inhibition % IC50 PGE2) is 5.40.
